How the values were obtained:
[1] = tested on: HEK293 cells (ATCC CRL-1573); test: Cellular growth inhibition assay, HEK293 cells (Example 16); assay type: cell-based; settings: Homo sapiens, 72 hours, CellTiter-Glo 2.0
Protocol: (§1) Exemplary compounds were tested for ability to inhibit the proliferation of HEK293 cells (ATCC CRL-1573) and HeLa cells (ATCC CCL-2).
(§2) HEK293 and HeLa cells were cultured in DMEM (Gibco 11995), supplemented with 10% Heat-inactivated FBS (Gibco A38400-01) and 1% Penicillin/Streptomycin (Gibco 15140-122) at 37° C. with 5% CO2 in a humidified tissue culture incubator. Cells were seeded at 500 cells/well in 384-well, Poly-D-lysine-treated blackplates (Perkin Elmer 6007710) in 25 μL media lacking selection for 18-24 hours. Plates were spun at 300 g for 30 seconds and stored in the incubator overnight. After 24 hours, a 25 μL aliquot of compound-containing medium was added in each well, at a final top concentration of 10 μM test compound, with 3-fold dilutions, using DMSO alone as a negative control. Plates were then spun at 300×g for 3 minutes again and cultured at 37° C. with 5% CO2. After 72 hours, cell viability was quantified with CellTiter-Glo 2.0 (Promega). After equilibrating cell plates at room temperature for 30 minutes, 25 μL CellTiter-Glo 2.0 reagent was dispensed into each well. Plates were mixed on a shaker for 2 minutes at 500 rpm, followed by a 10-minute incubation at room temperature. Luminescence readings were measured with an EnVision Plate Reader (Perkin Elmer). Data was normalized to DMSO treated cell wells. A four-parameter non-linear regression curve fit was applied to dose-response data in Prism to determine the half maximal growth inhibitory concentration (GI50) of each compound.

HeLa cells (ATCC CCL-2) = test: Cellular growth inhibition assay, HeLa cells (Example 16); assay type: cell-based; settings: Homo sapiens, 72 hours, CellTiter-Glo 2.0
Protocol: as §1, §2

GSPT1 = biological target: T1, GSPT1 (Homo sapiens, UniProt P15170+Q96SW2); test: GSPT1 HiBiT degradation assay; assay type: cell-based; settings: HEK293 LgBiT GSPT1 HiBiT cells, 6 hours
T1 construct: host or cells: HEK293 LgBiT / GSPT1 HiBiT CRISPR knock-in
T1 sequence (P15170 whole entry): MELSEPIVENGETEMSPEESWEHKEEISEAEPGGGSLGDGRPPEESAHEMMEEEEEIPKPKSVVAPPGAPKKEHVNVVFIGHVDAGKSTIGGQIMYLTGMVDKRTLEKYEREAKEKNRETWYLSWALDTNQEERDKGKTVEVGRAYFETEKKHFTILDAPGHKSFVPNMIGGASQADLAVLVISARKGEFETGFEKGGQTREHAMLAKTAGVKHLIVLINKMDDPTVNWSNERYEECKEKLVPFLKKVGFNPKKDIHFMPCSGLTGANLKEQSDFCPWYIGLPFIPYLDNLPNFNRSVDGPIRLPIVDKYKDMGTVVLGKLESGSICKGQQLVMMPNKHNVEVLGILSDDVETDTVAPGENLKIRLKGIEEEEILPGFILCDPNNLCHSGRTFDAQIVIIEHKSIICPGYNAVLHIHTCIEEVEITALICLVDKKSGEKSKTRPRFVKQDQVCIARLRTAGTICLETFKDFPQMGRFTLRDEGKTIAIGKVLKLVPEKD
T1 sequence (Q96SW2 whole entry): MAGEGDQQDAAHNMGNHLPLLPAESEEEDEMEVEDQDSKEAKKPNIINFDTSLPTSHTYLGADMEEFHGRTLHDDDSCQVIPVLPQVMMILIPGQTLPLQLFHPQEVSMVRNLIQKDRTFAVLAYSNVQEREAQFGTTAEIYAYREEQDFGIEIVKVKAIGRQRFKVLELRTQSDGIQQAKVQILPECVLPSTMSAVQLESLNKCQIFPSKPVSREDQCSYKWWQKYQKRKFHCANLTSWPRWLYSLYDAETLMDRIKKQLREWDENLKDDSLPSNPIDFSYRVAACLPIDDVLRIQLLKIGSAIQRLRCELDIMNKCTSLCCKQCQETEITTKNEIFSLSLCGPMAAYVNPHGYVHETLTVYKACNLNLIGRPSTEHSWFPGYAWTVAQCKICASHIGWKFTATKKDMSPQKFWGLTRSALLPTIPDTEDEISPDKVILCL
T1 sequence (Q16531 whole entry partner): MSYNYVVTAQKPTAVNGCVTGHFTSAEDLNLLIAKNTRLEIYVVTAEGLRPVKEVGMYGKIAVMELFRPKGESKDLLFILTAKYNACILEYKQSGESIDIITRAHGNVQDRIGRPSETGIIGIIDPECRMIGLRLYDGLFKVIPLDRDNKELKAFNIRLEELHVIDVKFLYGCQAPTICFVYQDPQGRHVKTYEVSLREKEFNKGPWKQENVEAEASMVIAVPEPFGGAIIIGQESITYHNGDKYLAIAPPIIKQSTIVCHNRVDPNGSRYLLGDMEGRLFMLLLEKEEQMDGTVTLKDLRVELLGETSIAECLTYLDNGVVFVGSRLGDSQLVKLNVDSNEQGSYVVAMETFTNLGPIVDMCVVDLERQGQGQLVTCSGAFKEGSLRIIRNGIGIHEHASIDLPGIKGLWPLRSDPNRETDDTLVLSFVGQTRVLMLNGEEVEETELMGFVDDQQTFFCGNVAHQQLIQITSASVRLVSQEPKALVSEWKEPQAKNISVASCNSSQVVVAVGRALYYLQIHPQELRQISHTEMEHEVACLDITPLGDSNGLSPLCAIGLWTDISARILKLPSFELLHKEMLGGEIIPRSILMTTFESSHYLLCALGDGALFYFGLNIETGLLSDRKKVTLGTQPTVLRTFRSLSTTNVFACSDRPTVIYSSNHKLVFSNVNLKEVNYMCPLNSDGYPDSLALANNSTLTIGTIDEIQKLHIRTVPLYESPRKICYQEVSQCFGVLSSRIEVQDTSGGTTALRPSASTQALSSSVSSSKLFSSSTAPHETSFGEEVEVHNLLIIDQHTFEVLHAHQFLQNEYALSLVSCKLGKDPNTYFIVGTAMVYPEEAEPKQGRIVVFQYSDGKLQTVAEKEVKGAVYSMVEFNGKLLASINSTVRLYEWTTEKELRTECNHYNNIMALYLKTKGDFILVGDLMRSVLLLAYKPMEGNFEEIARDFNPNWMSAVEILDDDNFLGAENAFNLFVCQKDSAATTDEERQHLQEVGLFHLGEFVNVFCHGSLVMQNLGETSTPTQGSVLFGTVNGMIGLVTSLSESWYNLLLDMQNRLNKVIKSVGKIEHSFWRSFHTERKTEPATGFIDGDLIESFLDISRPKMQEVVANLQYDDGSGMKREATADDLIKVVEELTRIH
Description: Promega developed a HEK293 cell line that constitutively expresses LgBiT protein and GSPT1_HiBiT fusion protein. When both proteins are present, the HiBiT portion of the fusion protein combines with LgBiT protein to form a functional luciferase enzyme. Endurazine, a cell permeable small molecule, is converted by cellular esterases into furimazine, which the luciferase enzyme uses as a substrate to generate luminescence. When GSPT1 is degraded, the HiBit is also degraded. This prevents formation of fully functional luciferase, leading to a loss in luminescence. GSPT1 degradation therefore correlates with a decrease in luminescence and can be measured continuously over time. The concentration of compound at which 50% GSPT1 degradation occurs (DC50) may be calculated using this system.
HEK293 LgBiTGSPT1 HiBiT CRISPR Knock-in cells were cultured in DMEM Media supplemented with 10% Heat-inactivated FBS, 1% Penicillin/Streptomycin, 200 μg/mL hygromycin and stored in a humidified incubator set at 37° C. and 5% CO2. 18-24 hours prior to compound treatment, cells were seeded at 1000 cells/well in a 384-well tissue culture-treated white plates in 25 μL media lacking selection for 18-24 hours. The plates were spun at 300 g for 30 seconds and stored in the incubator overnight. After 24 hours, compounds are titrated in DMSO and added to media supplemented with endurazine substrate. A 25 μL aliquot of 2× compound/endurazine in media is then added to the 384-well microplate with seeded cells. (Endurazine is used at a final concentration of 0.5×). The plate was spun at 300 g for 30 seconds and stored in the incubator. After 6 hours, the plate was read on a Perkin Elmer MultiMode Plate Reader Envision 2105 to measure luminescence signal. Data were plotted in Prism (Graphpad) and the concentration of compound at which 50% GSPT1 degradation occurs (DC50) was calculated.

KRAS G12C = KRAS G12C (Homo sapiens, UniProt P01116, G12C); test: KRAS G12C nucleotide exchange assay (SOS1-mediated, HTRF); assay type: biochemical; set-up: GST-tagged KRAS G12C (amino acids 2-169); settings: 1 hr pre-incubation
Sequence of KRAS G12C (P01116 2-169 isoform P01116-2 G12C): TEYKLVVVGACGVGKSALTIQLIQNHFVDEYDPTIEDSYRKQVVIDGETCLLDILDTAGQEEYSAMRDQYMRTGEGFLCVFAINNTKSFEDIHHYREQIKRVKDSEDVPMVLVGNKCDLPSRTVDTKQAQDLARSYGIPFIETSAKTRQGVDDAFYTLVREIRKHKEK
Protocol: KRAS target engagement (IC50 determination) was performed using a KRAS G12C nucleotide exchange assay. Specifically, compounds were tested against KRAS G12C in 10-point concentration IC50 mode with 3-fold serial dilution at a starting concentration of 10 μM. ARS1620 was used as a control.
Briefly, GST-tagged KRAS G12C (amino acids 2-169) was mixed with anti-GST Tb antibody (1.5× solution) and 10 μL was delivered to reaction wells. Compounds were delivered using an acoustic dispenser (Echo, Labcyte) and pre-incubated with protein for 1 hr at RT. KRAS/anti-GST Tb Ab/compound mixture was incubated for 1 hour at room temperature. A 3× solution of SOS1 (amino acids 564-1049) and GTP-DY-647P1 (GTP*) was prepared in reaction buffer. A 5 μL aliquot of SOS1/GTP* solution was added to reaction wells to initiate the exchange reaction. No-SOS1 reaction or max compound concentration was used as blank. The final concentrations of KRAS G12C, SOS1, and GTP* were 30 nM, 20 nM, and 0.15 μM, respectively. SOS1 mediated exchange of GDP to GTP-DY-647P was measured using HTRF (Ex/Em=(320-75/665-7.5; 615-8.5)) using an Envision Plate Reader (Perkin Elmer). IC50 determination was performed using a Sigmoidal dose response (variable slope) equation.

Row | Structure (SMILES) | GI50 [1] [nM] | GI50 (HeLa cells (ATCC CCL-2)) [nM] | DC50 (GSPT1) [nM] | IC50 (KRAS G12C) [nM]
1 | C=C(CN1C(=O)CCC(N2Cc3cc(CNC(=O)NCc4cccc(C(F)(F)F)c4O)ccc3C2=O)C1=O)C(=O)N1CCN(c2nc(OC[C@@H]3CCCN3C)nc3c2CCN(c2cccc4cccc(Cl)c24)C3)C[C@@H]1CC#N (stereo in doubt) [Compound I-94] | 1500 to 10000 | > 10000 | – | –
2 | C=C(CN1C(=O)CCC(N2Cc3cc(CNC(=O)Nc4ccc(C)c(Cl)c4)ccc3C2=O)C1=O)C(=O)N1CCN(c2nc(=O)n(-c3c(C)ccnc3C(C)C)c3nc(-c4c(O)cccc4F)c(F)cc23)[C@@H](C)C1 (stereo partly drawn) [Compound I-1, 1-(3-chloro-4-methyl-phenyl)-3-[[2-[1-[2-[(3S)-4-[6-fluoro-7-(2-fluoro-6-hydroxy-phenyl)-1-(2-isopropyl-4-methyl-3-pyridyl)-2-oxo-pyrido[2,3-d]pyrimidin-4-yl]-3-methyl-piperazine-1-carbonyl]allyl]-2,6-dioxo-3-piperidyl]-1-oxo-isoindolin-5-yl]methyl]urea] | – | – | 500 to 2500 | –
3 | C=C(CN1C(=O)CCC(N2Cc3cc(CNC(=O)Nc4ccc(C)c(Cl)c4)ccc3C2=O)C1=O)C(=O)N1CCN(c2nc(OC[C@@H]3CCCN3C)nc3c2CCN(c2cccc4cccc(Cl)c24)C3)C[C@@H]1CC#N (stereo partly drawn) [Compound I-2, 1-(3-chloro-4-methyl-phenyl)-3-[[2-[1-[2-[(2S)-4-[7-(8-chloro-1-naphthyl)-2-[[(2S)-1-methylpyrrolidin-2-yl]methoxy]-6,8-dihydro-5H-pyrido[3,4-d]pyrimidin-4-yl]-2-(cyanomethyl)piperazine-1-carbonyl]allyl]-2,6-dioxo-3-piperidyl]-1-oxo-isoindolin-5-yl]methyl]urea] | – | – | 50 to 500 | > 10000
4 | C=C(CN(Cc1ccc2c(c1)CN(C1CCC(=O)NC1=O)C2=O)C(=O)Nc1ccc(C)c(Cl)c1)C(=O)N1CCN(c2nc(OC[C@@H]3CCCN3C)nc3c2CCN(c2cccc4cccc(Cl)c24)C3)C[C@@H]1CC#N (stereo partly shown) [Compound I-33] | 1500 to 10000 | 1500 to 10000 | > 2500 | –
5 | C=C(CN(C(=O)NCc1ccc2c(c1)CN(C1CCC(=O)NC1=O)C2=O)c1ccc(C)c(Cl)c1)C(=O)N1CCN(c2nc(OC[C@@H]3CCCN3C)nc3c2CCN(c2cccc4cccc(Cl)c24)C3)C[C@@H]1CC#N (stereo partly shown) [Compound I-34] | < 500 | 1500 to 10000 | 50 to 500 | –
6 | C=C(COc1ccc(CN2C(=O)CCC(N3Cc4cc(CNC(=O)Nc5ccc(C)c(Cl)c5)ccc4C3=O)C2=O)cc1)C(=O)N1CCC[C@@H](n2nc(-c3ccc(Oc4ccccc4)cc3)c3c(N)ncnc32)C1 (stereo partly shown) [Compound I-36] | > 10000 | > 10000 | > 2500 | –
7 | C=C(CN(C(=O)NCc1ccc2c(c1)CN(C1CCC(=O)NC1=O)C2=O)c1cc(Cl)cc([N+](=O)[O-])c1)C(=O)N1CCC[C@@H](n2nc(-c3ccc(Oc4ccccc4)cc3)c3c(N)ncnc32)C1 (stereo partly shown) [Compound I-37] | – | – | > 2500 | –
8 | C=C(CN(C(=O)NCc1ccc2c(c1)CN(C1CCC(=O)NC1=O)C2=O)c1ccc(OC)c(Cl)c1)C(=O)N1CCC[C@@H](n2nc(-c3ccc(Oc4ccccc4)cc3)c3c(N)ncnc32)C1 (stereo partly shown) [Compound I-39] | > 10000 | > 10000 | > 2500 | –
9 | C=C(CN(C(=O)NCc1ccc2c(c1)CN(C1CCC(=O)NC1=O)C2=O)c1cc(Cl)cc(OC)c1)C(=O)N1CCC[C@@H](n2nc(-c3ccc(Oc4ccccc4)cc3)c3c(N)ncnc32)C1 (stereo partly shown) [Compound I-40] | > 10000 | > 10000 | > 2500 | –
10 | C=C(COc1c(F)cc(CN2C(=O)CCC(N3Cc4cc(CNC(=O)Nc5ccc(C)c(Cl)c5)ccc4C3=O)C2=O)cc1F)C(=O)N1CCC[C@@H](n2nc(-c3ccc(Oc4ccccc4)cc3)c3c(N)ncnc32)C1 (stereo partly shown) [Compound I-51] | > 10000 | > 10000 | > 2500 | –
11 | C=C(COC(=O)NCc1cc(Cl)cc(NC(=O)NCc2ccc3c(c2)CN(C2CCC(=O)NC2=O)C3=O)c1)C(=O)N1CCC[C@@H](n2nc(-c3ccc(Oc4ccccc4)cc3)c3c(N)ncnc32)C1 (stereo partly drawn) [Compound I-53, 2-((R)-3-(4-amino-3-(4-phenoxyphenyl)-1H-pyrazolo[3,4-d]pyrimidin-1-yl)piperidine-1-carbonyl)allyl (3-chloro-5-(3-((2-(2,6-dioxopiperidin-3-yl)-1-oxoisoindolin-5-yl)methyl)ureido)benzyl)carbamate] | 500 to 1500 | 500 to 1500 | 50 to 500 | –
12 | C=C(COc1cccc(NC(=O)NCc2ccc3c(c2)CN(C2CCC(=O)NC2=O)C3=O)c1Cl)C(=O)N1CCN(c2nc(OC[C@@H]3CCCN3C)nc3c2CCN(c2cccc4cccc(Cl)c24)C3)C[C@@H]1CC#N (stereo partly shown) [Compound I-91] | > 10000 | > 10000 | – | –
13 | C=C(COc1ccc2c(Cl)c(NC(=O)NCc3ccc4c(c3)CN(C3CCC(=O)NC3=O)C4=O)ccc2c1)C(=O)N1CCN(c2nc(OC[C@@H]3CCCN3C)nc3c2CCN(c2cccc4cccc(Cl)c24)C3)C[C@@H]1CC#N (stereo partly shown) [Compound I-92] | < 500 | > 10000 | – | –
14 | C=C(Cn1ccc2ccc(NC(=O)NCc3ccc4c(c3)CN(C3CCC(=O)NC3=O)C4=O)cc21)C(=O)N1CCN(c2nc(OC[C@@H]3CCCN3C)nc3c2CCN(c2cccc4cccc(Cl)c24)C3)C[C@@H]1CC#N (stereo partly shown) [Compound I-93] | 500 to 1500 | 500 to 1500 | – | –
15 | C=C(COc1cc(NC(=O)NCc2ccc3c(c2)CN(C2CCC(=O)NC2=O)C3=O)cc(OC)c1Cl)C(=O)N1CCN(c2nc(OC[C@@H]3CCCN3C)nc3c2CCN(c2cccc4cccc(Cl)c24)C3)C[C@@H]1CC#N (stereo partly shown) [Compound I-96] | > 10000 | > 10000 | – | –
16 | C=C(COc1c(Cl)cccc1NC(=O)NCc1ccc2c(c1)CN(C1CCC(=O)NC1=O)C2=O)C(=O)N1CCC[C@@H](n2nc(-c3ccc(Oc4ccccc4)cc3)c3c(N)ncnc32)C1 (stereo partly shown) [Compound I-115] | 1500 to 10000 | 500 to 1500 | < 50 | –
17 | C=C(COC(=O)NC1CCC(Nc2nc(NCc3ccc(-c4ccccn4)cc3)c3ncn(C(C)C)c3n2)CC1)C(=O)N1CCN(c2nc(OC[C@@H]3CCCN3C)nc3c2CCN(c2cccc4cccc(Cl)c24)C3)C[C@@H]1CC#N (stereo partly shown) [II-192] | 500 to 1500 | < 500 | – | –

Reference: US20240408093A1, “HETEROBIFUNCTIONAL COMPOUNDS AND THEIR USE IN TREATING DISEASE” (HALDA THERAPEUTICS OPCO, INC., priority 2022, published 2024)
